{"source": "patent US5942495A", "about": "“Antibiotics” (BTG International Limited, priority 1997, dated 1999)", "key": {"[1]": {"test_system": "Candida albicans ATCC 262778", "assay": "In vitro antifungal activity (growth inhibition, turbidimetric, liquid Sabouraud medium)", "type": "cell-based", "conditions": "for IC50 (concentration inhibiting growth of fungi by 50%): 24 hours at 30° C., liquid Sabouraud medium", "procedure": "The antifungal activity of compounds was determined following the standard for polyene macrolide procedure. The liquid Sabouraud medium was inoculated with 10^4 cells/ml of test organism Candida albicans ATCC 262778 and incubated for 24 hours at 30° C. with the tested antibiotic (serial dilutions). Amphotericin B was used as the reference. Compounds were dissolved in DMF and suitable amounts of the solutions were added to the medium. Turbidimetric method (660 nm) was applied to determine the degree of growth inhibition. The concentration of antibiotic at which the growth of fungi was inhibited by 50% was determined from the dose response curve. The obtained IC50 value characterized antifungal activity of the compound."}, "[2]": {"assay": "In vitro toxicity (haemolysis of human erythrocytes)", "type": "cell-based", "conditions": "human, erythrocytes, 30 minutes at 37° C., read-out: EH50 (concentration at which 50% of hemolysis occurred)", "procedure": "(§1) Toxicity of compounds in vitro against animal cells was determined using standard for polyene macrolides procedure, by the determination of the degree of haemolysis of human erythrocytes. Human erythrocytes isolated from fresh, citrated human blood were washed twice with cold saline. The cells were diluted 250 times with saline and equilibrated for 30 minutes at 37° C. Samples of erythrocytes were incubated with various concentrations of antibiotics (the base solution in DMF) for 30 minutes at 37° C. After centrifugation the lysis of erythrocytes was assessed by determination of the haemoglobin released to the solution. Optical density of the supernatant was measured at […]. The results were expressed by EH50 value, as concentration of antibiotic at which 50% of hemolysis occurred. The values of EH50 were read from a curve relating the degree of hemolysis with antibiotic dose."}, "[3]": {"assay": "Solubility", "type": "physicochemical"}, "[4]": {"test_system": "human erythrocytes", "assay": "In vitro toxicity (haemolysis of human erythrocytes)", "type": "cell-based", "conditions": "30 minutes at 37° C.", "procedure": "as §1"}, "[5]": {"assay": "In vivo toxicity, maximum tolerated dose (MTD)", "conditions": "mouse, in vivo, Balb/c mice", "procedure": "(§2) In vivo toxicity was determined for methyl ester of N-methyl-N-D-fructosylamphotericin B L-aspartate as the maximum tolerated dose (MTD), and as the acute toxicity (LD50). To determine MTD dose the compound was dissolved in 5% solution of glucose, and administered intravenously and intraperitonealy to Balb/c mice in single and multiple doses."}, "[6]": {"test_system": "Balb/c mice", "assay": "In vivo toxicity, maximum tolerated dose (MTD)", "conditions": "intraperitoneal 100 mg/kg for 5 days, 20 days of observation", "procedure": "as §2"}, "[7]": {"assay": "Acute toxicity (LD50)", "conditions": "mouse, in vivo, iv", "protocol": "(§3) Various doses of the tested compound, and for comparison, amphotericin B in form of Fungizone, dissolved in 5% glucose were given intravenously to the animals. The administered volume of the solution was 0.5 ml. 0.5 ml of 5% solution of glucose was administered to mice as a control. Every dose of both preparations was administered to 5 mice. […] Next, the animals were killed, and some serum indexes were determined."}, "[8]": {"test_system": "Swiss Webster female mice", "assay": "Serum indexes after acute toxicity study", "type": "in vivo", "conditions": "in comparison with the control (5% glucose), after 7 days", "protocol": "as §3"}, "[9]": {"test_system": "Candida albicans", "assay": "Chemotherapeutic efficacy, systemic murine candidose model", "type": "in vivo", "conditions": "840 h, intravenous, twice a day, 5 days, female Swiss Webster mice", "protocol": "Candida albicans was grown overnight in Sabouraud dextrose broth at room temperature. The fungal cells were centrifuged, washed twice with 0.9% solution of sodium chloride, and suspended in physiological salt solution. Female Swiss Webster mice of 25 g weight, were injected intravenously with 10^5 cells of Candida in 0.2 ml of 0.9% sodium chloride solution. Initially, the infection was systemic, but by 2 to 3 days it was localized to the kidneys. Untreated animals usually died between 7 to 14 days post-infection. Three days post-infection, animals were treated intravenously, twice a day, for 5 consecutive days with a 5 to 6 hours interval. Preparation was administered as a solution in 5% glucose. […] After this time, the surviving animals were sacrificed, their kidneys were removed, homogenized in sterile water, and the homogenate was placed on Sabouraud dextrose agar, and the grown colonies of Candida were counted. […] The dose, called ED50, was calculated using a method given in J.Hyg."}}, "note": "Like-named read-outs stand apart in the source and are kept apart here."}
{"molecule": "COC(=O)[C@H]1[C@@H]2C[C@@H](O[C@@H]3O[C@H](C)[C@@H](O)[C@H](N(C)CC4(O)OC[C@@H](O)[C@@H](O)[C@@H]4O)[C@@H]3O)/C=C/C=C/C=C/C=C/C=C/C=C/C=C/[C@H](C)[C@@H](O)[C@@H](C)[C@H](C)OC(=O)C[C@H](O)C[C@H](O)CC[C@@H](O)[C@H](O)C[C@H](O)C[C@](O)(C[C@@H]1O)O2", "note": "(single isomer, unassigned) [Example I, N-methyl-N-D-fructosylamphotericin B methyl ester]", "values": [{"measurement": "IC50 (concentration inhibiting growth of fungi by 50%)", "setting": "[1]", "value": 0.12, "unit": "µg/mL"}, {"measurement": "HC50 at 0.5 h", "setting": "[2]", "value": "> 350", "unit": "µg/mL"}, {"measurement": "solubility", "setting": "[3]; under conditions of the haemolysis experiment, read-out: solubility limit (insoluble above)", "value": "≤ 350", "unit": "µg/mL"}]}
{"molecule": "COC(=O)[C@H]1[C@@H]2C[C@@H](O[C@@H]3O[C@H](C)[C@@H](O)[C@H](N(C)CC4(O)OC[C@@H](O)[C@@H](O)[C@@H]4O)[C@@H]3O)/C=C/C=C/C=C/C=C/C=C/C=C/C=C/[C@H](C)[C@@H](O)[C@@H](C)[C@H](C)OC(=O)C[C@H](O)C[C@H](O)CC[C@@H](O)[C@H](O)C[C@H](O)C[C@](O)(C[C@@H]1O)O2", "note": "(single isomer, unassigned) [Example VIII, N-methyl-N-D-fructosylamphotericin B methyl ester]", "values": [{"measurement": "IC50 (concentration inhibiting growth of fungi by 50%)", "setting": "[1]", "value": 0.42, "unit": "µg/mL"}, {"measurement": "EH50 (concentration at which 50% of hemolysis occurred)", "setting": "[4]; 30 min", "value": "above 200 μg/ml"}]}
{"molecule": "COC(=O)[C@H]1[C@@H]2C[C@@H](O[C@@H]3O[C@H](C)[C@@H](O)[C@H](N(C)CC4(O)OC[C@@H](O)[C@@H](O)[C@@H]4O)[C@@H]3O)/C=C/C=C/C=C/C=C/C=C/C=C/C=C/[C@H](C)[C@@H](O)[C@@H](C)[C@H](C)OC(=O)C[C@H](O)C[C@H](O)CC[C@@H](O)[C@H](O)C[C@H](O)C[C@](O)(C[C@@H]1O)O2", "note": "(stereo partly drawn) [Example X, methyl ester of N-methyl-N-D-fructosylamphotericin B L-aspartate]", "values": [{"measurement": "IC50", "setting": "[1]; ATCC262778, 24 h, read-out: IC50 (concentration inhibiting growth of fungi by 50%)", "value": 0.125, "unit": "µg/mL"}, {"measurement": "EH50 (concentration at which 50% of hemolysis occurred)", "setting": "[4]; 30 min", "value": "above 350 μg/ml"}, {"measurement": "MTD", "setting": "[5]; ip, intraperitoneal, for 5 days, read-out: maximum multiple tolerated dose", "value": "> 100", "unit": "mg/kg"}, {"measurement": "MTD", "setting": "[5]; ip, intraperitoneal, single dose, in 5% glucose, read-out: maximum single tolerated dose (MTD)", "value": "> 200", "unit": "mg/kg"}, {"measurement": "MTD", "setting": "[5]; iv, single dose, in 5% glucose, read-out: maximum single tolerated dose (MTD)", "value": 100, "unit": "mg/kg"}, {"measurement": "toxic effects", "setting": "[6]", "value": "toxic effects were not observed"}, {"measurement": "LD50 at 168 h", "setting": "[7]", "value": 400, "unit": "mg/kg"}, {"measurement": "level of aspartate aminotransferase", "setting": "[8]", "value": "No increased level"}, {"measurement": "level of creatinine", "setting": "[8]", "value": "No increased level"}, {"measurement": "ED50", "setting": "[9]; 5 weeks observation, read-out: ED50 based on the survival", "value": 2.3, "unit": "mg/kg"}, {"measurement": "ED50", "setting": "[9]; clearance of Candida from kidneys, read-out: ED50 based on the kidneys clearance", "value": 6, "unit": "mg/kg"}, {"measurement": "solubility in N,N-dimethylformamide, dimethylsulphoxide and 5% water solution of glucose", "setting": "[3]; DMF, DMSO, 5% aqueous glucose", "value": "soluble"}, {"measurement": "solubility in water", "setting": "[3]; water", "value": "very well soluble in water"}]}
{"molecule": "C[C@@H]1[C@H](O)[C@@H](C)/C=C/C=C/C=C/C=C/C=C/C=C/C=C/[C@H](O[C@@H]2O[C@H](C)[C@@H](O)[C@H](N)[C@@H]2O)C[C@@H]2O[C@](O)(C[C@@H](O)C[C@@H](O)[C@H](O)CC[C@@H](O)C[C@@H](O)CC(=O)O[C@H]1C)C[C@H](O)[C@H]2C(=O)O", "note": "[amphotericin B, reference compound]", "values": [{"measurement": "HC50 at 0.5 h", "setting": "[2]", "value": 1.5, "unit": "µg/mL"}]}
{"molecule": "N-methyl-N-D-fructosylamphotericin B methyl ester [Example IX]", "values": [{"measurement": "IC50 (concentration inhibiting growth of fungi by 50%)", "setting": "[1]", "value": 6.0, "unit": "µg/mL"}]}
{"molecule": "N-methyl-N-D-fructosylamphotericin B methyl ester [Example VII]", "values": [{"measurement": "IC50 (concentration inhibiting growth of fungi by 50%)", "setting": "[1]", "value": 0.42, "unit": "µg/mL"}]}
{"molecule": "N-methyl-N-D-fructosylcandidin D methyl ester [Example V]", "values": [{"measurement": "IC50 (concentration inhibiting growth of fungi by 50%)", "setting": "[1]", "value": 0.01, "unit": "µg/mL"}, {"measurement": "EH50 (concentration at which 50% of hemolysis occurred)", "setting": "[4]", "value": "≈ 180 μg/ml"}]}
{"molecule": "N-methyl-N-D-fructosylcandidin methyl ester [Example II]", "values": [{"measurement": "IC50 (concentration inhibiting growth of fungi by 50%)", "setting": "[1]", "value": 0.75, "unit": "µg/mL"}, {"measurement": "EH50 (concentration at which 50% of hemolysis occurred)", "setting": "[4]", "value": "above 300 μg/ml"}]}
{"molecule": "N-methyl-N-D-fructosylnystatin methyl ester [Example III]", "values": [{"measurement": "IC50 (concentration inhibiting growth of fungi by 50%)", "setting": "[1]", "value": 6.8, "unit": "µg/mL"}, {"measurement": "EH50 (concentration at which 50% of hemolysis occurred)", "setting": "[4]", "value": "above 300 μg/ml"}]}
{"molecule": "N-methyl-N-D-fructosylvacidin methyl ester [Example IV]", "values": [{"measurement": "IC50 (concentration inhibiting growth of fungi by 50%)", "setting": "[1]", "value": 0.01, "unit": "µg/mL"}, {"measurement": "EH50 (concentration at which 50% of hemolysis occurred)", "setting": "[4]", "value": 170, "unit": "µg/mL"}]}
{"molecule": "N-methyl-N-fructosyltrychomycin methyl ester [Example VI]", "values": [{"measurement": "IC50 (concentration inhibiting growth of fungi by 50%)", "setting": "[1]", "value": 0.013, "unit": "µg/mL"}, {"measurement": "EH50 (concentration at which 50% of hemolysis occurred)", "setting": "[4]", "value": "≈ 165 μg/ml"}]}
